# Target: T1, human H3 receptors (Homo sapiens, UniProt Q9Y5N1)
# T1 construct: host or cells: CHO-K1
# Experiment: cAMP quantification assay for human H3 receptor testing
# Assay type: cell-based
# Conditions: CHO-K1 cells expressing human H3 receptors; inhibition of agonist-induced decrease of cAMP; 100 nM histamine, 10 μM forskolin; read-out: Potency range (IC50 values)
# Protocol: CHO—K1 cell line expressing human H3 receptors were purchased from Euroscreen (Gosselies, Belgium, Cat. no.: ES-392-C)
# Human H3 receptor-expressing cell-lines were grown in Ham's F12 [Sigma, Cat. no. N6658], supplemented with 10% FBS [Sigma, Cat. no. F9665], 400 μg/ml G418 [Sigma, Cat. no. N1876] and 250 μg/ml Zeocin [Invitrogen, Cat. no. 46-0509]) according to the protocol provided by Euroscreen.
# The assay measures the ability of test compounds to inhibit Histamine receptor agonist-induced decrease of intracellular free cAMP (receptor is Gi coupled).
# Specifically, a cAMP quantification assay system from DiscoveRx (cAMP XS+; Cat. no. 90-0075) was used.
# For the cAMP assay, confluent cells were detached from the culture vessels with 1× trypsin-EDTA solution (Sigma), and seeded into 384-well Costar plates (white, clear bottom, Cat. no. 3707) at a density of 10,000 cells per well. Cells were seeded in a volume of 50 μl in medium without antibiotics and incubated overnight in a humidified atmosphere with 5% CO2 at 37° C. The cAMP assay was performed according to the protocol provided by DiscoveRx.
# The cell culture medium was removed and the cells washed once with PBS (50 μl per well). The plates were emptied by inversion and 7.5 μl/well of compound in PBS (containing 1 mM IBMX and 0.03% BSA) were added and incubated for 30 min at 37° C.
# Subsequent 7.5 μl/well specific agonist solution was added and the plates for another 30 min incubated at 37° C.
# hH3:100 nM histamine, 10 μM forskolin in PBS (containing 1 mM IBMX and 0.03% BSA)
# After the incubation with the agonist, 5 μl/well cAMP XS antibody solution was added followed by 20 μl/well Gal/EII/Lysis (1:5:19)+ED (1:1). The plates were incubated for one hour at room temperature and afterwards 20 μl/well EA reagent was added. The luminescence was developed for approximately three hours at room temperature and the plates were read out using a ‘BMG Novostar’ plate reader.
# Test compounds were assayed at 8 concentrations in triplicate. Serial 10-fold dilutions in 100% DMSO were made at a 100-times higher concentration than the final concentration and then diluted with a 2 step protocol in assay buffer to reach the required assay concentrations and 1% DMSO. […]
# T1 sequence (Q9Y5N1 whole entry): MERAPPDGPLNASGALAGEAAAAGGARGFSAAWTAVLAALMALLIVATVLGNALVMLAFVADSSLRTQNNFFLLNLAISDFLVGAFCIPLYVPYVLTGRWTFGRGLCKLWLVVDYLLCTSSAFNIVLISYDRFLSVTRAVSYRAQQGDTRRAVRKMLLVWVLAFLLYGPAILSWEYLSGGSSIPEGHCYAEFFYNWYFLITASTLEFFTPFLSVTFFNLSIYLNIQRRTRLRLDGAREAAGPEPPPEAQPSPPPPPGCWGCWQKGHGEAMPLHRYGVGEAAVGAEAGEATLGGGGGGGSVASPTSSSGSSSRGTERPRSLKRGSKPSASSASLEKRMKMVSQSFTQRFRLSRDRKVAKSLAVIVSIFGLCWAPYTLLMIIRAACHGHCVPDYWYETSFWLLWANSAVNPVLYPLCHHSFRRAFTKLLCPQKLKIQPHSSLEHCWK
row,IC50,Structure (SMILES)
1,< 100 nM,"CNC(=O)c1ccc(OC2CN(C(=O)N3CCN(C4CCC4)CC3)C2)cn1 [Example 37, 5-({1-[(4-cyclobutylpiperazin-1-yl)carbonyl]azetidin-3-yl}oxy)-N-methylpyridine-2-carboxamide]"
2,< 100 nM,"O=C(N1CCN(C2CCC2)CC1)N1CC(Oc2ccccc2)C1 [Example 38, 1-cyclobutyl-4-[(3-phenoxyazetidin-1-yl)carbonyl]piperazine]"
3,< 100 nM,"O=C(N1CCN(C2CCC2)CC1)N1CC(Oc2ccc(C(F)(F)F)cc2)C1 [Example 39, 1-cyclobutyl-4-({3-[4-(trifluoromethyl)phenoxy]azetidin-1-yl}carbonyl)piperazine]"
4,< 100 nM,"N#Cc1ccc(OC2CN(C(=O)N3CCN(C4CCC4)CC3)C2)cc1 [Example 40, 4-({1-[(4-cyclobutylpiperazin-1-yl)carbonyl]azetidin-3-yl}oxy)benzonitrile]"
5,< 100 nM,"O=C(N1CCN(C2CCC2)CC1)N1CC(Oc2ccc(F)cc2)C1 [Example 41, 1-cyclobutyl-4-{[3-(4-fluorophenoxy)azetidin-1-yl]carbonyl}piperazine]"
6,< 100 nM,"O=C(N1CCCN(C2CCC2)CC1)N1CC(Oc2ccc3c(n2)CCN(C2CCC2)C3)C1 [Example 42, 6-cyclobutyl-2-({1-[(4-cyclobutyl-1,4-diazepan-1-yl)carbonyl]azetidin-3-yl}oxy)-5,6,7,8-tetrahydro-1,6-naphthyridine]"
7,< 100 nM,"CNC(=O)c1ccc(OC2CN(C(=O)N3CCCN(C4CCC4)CC3)C2)c(F)c1 [Example 43, 4-({1-[(4-cyclobutyl-1,4-diazepan-1-yl)carbonyl]azetidin-3-yl}oxy)-3-fluoro-N-methylbenzamide]"
8,< 100 nM,"O=C(N1CCCN(C2CCC2)CC1)N1CC(Oc2ccc(I)cc2)C1 [Example 44, 1-cyclobutyl-4-{[3-(4-iodophenoxy)azetidin-1-yl]carbonyl}-1,4-diazepane]"
9,< 100 nM,"O=C(N1CCCN(C2CCC2)CC1)N1CC(Oc2cncc(F)c2)C1 [Example 45, 1-cyclobutyl-4-({3-[(5-fluoropyridin-3-yl)oxy]azetidin-1-yl}carbonyl)-1,4-diazepane]"
10,< 100 nM,"O=C(N1CCCN(C2CCC2)CC1)N1CC(Oc2ccc(Cl)nc2)C1 [Example 46, 1-({3-[(6-chloropyridin-3-yl)oxy]azetidin-1-yl}carbonyl)-4-cyclobutyl-1,4-diazepane]"
11,< 100 nM,"CNC(=O)c1ccc(OC2CN(C(=O)N3CCCN(C4CCC4)CC3)C2)cc1F [Example 47, 4-({1-[(4-cyclobutyl-1,4-diazepan-1-yl)carbonyl]azetidin-3-yl}oxy)-2-fluoro-N-methylbenzamide]"
12,< 100 nM,"O=C(N1CCCN(C2CCC2)CC1)N1CC(Oc2cnccc2Cl)C1 [Example 48, 1-({3-[(4-chloropyridin-3-yl)oxy]azetidin-1-yl}carbonyl)-4-cyclobutyl-1,4-diazepane]"
13,< 100 nM,"O=C(N1CCCN(C2CCC2)CC1)N1CC(Oc2ccncc2F)C1 [Example 49, 1-cyclobutyl-4-({3-[(3-fluoropyridin-4-yl)oxy]azetidin-1-yl}carbonyl)-1,4-diazepane]"
14,< 100 nM,"COc1nccc(OC2CN(C(=O)N3CCCN(C4CCC4)CC3)C2)n1 [Example 52, 1-cyclobutyl-4-({3-[(2-methoxypyrimidin-4-yl)oxy]azetidin-1-yl}carbonyl)-1,4-diazepane]"
15,< 100 nM,"CC(C)(O)c1cc(OC2CN(C(=O)N3CCCN(C4CCC4)CC3)C2)ccn1 [Example 53, 2-[4-({1-[(4-cyclobutyl-1,4-diazepan-1-yl)carbonyl]azetidin-3-yl}oxy)pyridin-2-yl]propan-2-ol]"
16,< 100 nM,"CCc1cc(OC2CN(C(=O)N3CCCN(C4CCC4)CC3)C2)ccn1 [Example 54, 1-cyclobutyl-4-({3-[(2-ethylpyridin-4-yl)oxy]azetidin-1-yl}carbonyl)-1,4-diazepane]"

row,IC50,Structure (SMILES)
1,< 100 nM,"CC(C)c1cc(OC2CN(C(=O)N3CCCN(C4CCC4)CC3)C2)ccn1 [Example 55, 1-cyclobutyl-4-[(3-{[2-(1-methylethyl)pyridin-4-yl]oxy}azetidin-1-yl)carbonyl]-1,4-diazepane]"
2,< 100 nM,"COc1cc(OC2CN(C(=O)N3CCCN(C4CCC4)CC3)C2)ccn1 [Example 56, 1-cyclobutyl-4-({3-[(2-methoxypyridin-4-yl)oxy]azetidin-1-yl}carbonyl)-1,4-diazepane]"
3,< 100 nM,"Nc1cc(OC2CN(C(=O)N3CCCN(C4CCC4)CC3)C2)ccn1 [Example 57, 4-({1-[(4-cyclobutyl-1,4-diazepan-1-yl)carbonyl]azetidin-3-yl}oxy)pyridin-2-amine]"
4,< 100 nM,"CN(C)c1cc(OC2CN(C(=O)N3CCCN(C4CCC4)CC3)C2)ccn1 [Example 58, 4-({1-[(4-cyclobutyl-1,4-diazepan-1-yl)carbonyl]azetidin-3-yl}oxy)-N,N-dimethylpyridin-2-amine]"
5,< 100 nM,"Cc1ccc(OC2CN(C(=O)N3CCCN(C4CCC4)CC3)C2)nn1 [Example 59, 1-cyclobutyl-4-({3-[(6-methylpyridazin-3-yl)oxy]azetidin-1-yl}carbonyl)-1,4-diazepane]"
6,< 100 nM,"CC(C)(O)c1ccc(OC2CN(C(=O)N3CCCN(C4CCC4)CC3)C2)cc1F [Example 60, 2-[4-({1-[(4-cyclobutyl-1,4-diazepan-1-yl)carbonyl]azetidin-3-yl}oxy)-2-fluorophenyl]propan-2-ol]"
7,< 100 nM,"Cc1cnc(OC2CN(C(=O)N3CCCN(C4CCC4)CC3)C2)c(C)n1 [Example 61, 1-cyclobutyl-4-({3-[(3,5-dimethylpyrazin-2-yl)oxy]azetidin-1-yl}carbonyl)-1,4-diazepane]"
8,< 100 nM,"Cc1cncc(OC2CN(C(=O)N3CCCN(C4CCC4)CC3)C2)n1 [Example 63, 1-cyclobutyl-4-({3-[(6-methylpyrazin-2-yl)oxy]azetidin-1-yl}carbonyl)-1,4-diazepane]"
9,< 100 nM,"Cc1cnc(C)c(OC2CN(C(=O)N3CCCN(C4CCC4)CC3)C2)n1 [Example 64, 1-cyclobutyl-4-({3-[(3,6-dimethylpyrazin-2-yl)oxy]azetidin-1-yl}carbonyl)-1,4-diazepane]"
10,< 100 nM,"Cc1nccc(OC2CN(C(=O)N3CCCN(C4CCC4)CC3)C2)n1 [Example 65, 1-cyclobutyl-4-({3-[(2-methylpyrimidin-4-yl)oxy]azetidin-1-yl}carbonyl)-1,4-diazepane]"
11,< 100 nM,"COc1cncc(OC2CN(C(=O)N3CCCN(C4CCC4)CC3)C2)n1 [Example 66, 1-cyclobutyl-4-({3-[(6-methoxypyrazin-2-yl)oxy]azetidin-1-yl}carbonyl)-1,4-diazepane]"
12,< 100 nM,O=C(N1CCCN(C2CCC2)CC1)N1CC(Oc2ccncc2Cl)C1 [Example 67]
13,< 100 nM,"O=C(N1CCCN(C2CCC2)CC1)N1CC(Oc2ccnc3ccccc23)C1 [Example 68, 4-({1-[(4-cyclobutyl-1,4-diazepan-1-yl)carbonyl]azetidin-3-yl}oxy)quinoline]"
14,< 100 nM,"Cc1cc(OC2CN(C(=O)N3CCCN(C4CCC4)CC3)C2)cc(C)n1 [Example 69, 1-cyclobutyl-4-({3-[(2,6-dimethylpyridin-4-yl)oxy]azetidin-1-yl}carbonyl)-1,4-diazepane]"
15,< 100 nM,"O=C(N1CCCN(C2CCC2)CC1)N1CC(Oc2cccn3ccnc23)C1 [Example 70, 8-({1-[(4-cyclobutyl-1,4-diazepan-1-yl)carbonyl]azetidin-3-yl}oxy)imidazo[1,2-a]pyridine]"
